Measurements published in patent publication US20120270917A1 (The Trustees of the University of Pennsylvania, priority 2009, published 2012).
Where a name gives a salt, the structure may show the parent alone. Read-outs that look alike come from different tables or passages of the source.

Target: T1, AM2 (Influenza A virus, UniProt P0DOF5)
T1 construct: expressed in transfected cells
Assay: cell-based
Settings: for AM2 % inhibition at μM: concentration not given; for AM2 % inhibition at μM / IC50: Table 2

[1] = read-out: AM2 % inhibition at 100 uM, 100 uM, Table 1
[2] = Oocytes, 100 μM, 2 min, mean ± SE, read-out: AM2 wt % of inhibition by 100 μM 2 min

T1 sequence (P0DOF5 whole entry): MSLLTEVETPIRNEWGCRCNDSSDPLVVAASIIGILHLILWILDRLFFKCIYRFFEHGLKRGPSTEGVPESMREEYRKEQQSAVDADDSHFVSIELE

Structure (SMILES)	inhibition at 100 µM [1] [%]	AM2 % inhibition at μM [%]	also measured
O=C1C2CC3CC1CC(C2)C3=O [Compound 52, 2,6-diadamantone]	59.1	–	–
NOC12CC3CC(CC(C3)C1)C2 [Compound 42, O-adamantylhydroxylamine]	87	–	–
CC(NC(=N)N)C12CC3CC(CC(C3)C1)C2 (stereo not drawn) [Compound 40]	94	–	–
C1NC2CC3CC1CC(C3)C2.Cl [Compound 47, 4-Azatricyclo[4.3.1.1^3,8]undecan hydrochloride]	83.8	–	–
NC12CC3CC(CC(C3)C1)C2 [Amantadine, reference compound]	–	–	inhibition at 100 µM [2]: 90.8 ± 2.5%
O=[N+]([O-])C12CC3CC(CC(C3)C1)C2 [Compound 54, 1-nitroadamantane]	87.2	–	–
NS(=O)(=O)NC1C2CC3CC(C2)CC1C3 (stereo not drawn) [Compound S7]	–	81.6	–
O=CC12CC3CC(CC(C3)C1)C2 [Compound 49, 1-adamantanecarboaldehyde]	65.1	–	–
CC1(N)C2CC3CC(C2)CC1C3 (stereo not drawn) [Compound S5]	–	65.0	–
NC1CSC2(SC1)C1CC3CC(C1)CC2C3 (stereo not drawn) [Compound 45]	64	–	–
Cl.NC12CC3CCC(CC(C3)C1)C2 [Compound S2, tricyclo[4.3.1.13,8]undecan-1-aminium chloride]	–	81.3	–
NC(=O)C12CC3CC(CC(C3)C1)C2 [Compound 48]	74.9	–	–
N=C(NO)C12CC3CC(CC(C3)C1)C2 [Compound 46, N-hydroxyadamantanecarboximidamide]	72.3	–	–
Cl.NC1C[C@@H]2C[C@@H]3CC1[C@H](C2)C3 (stereo partly drawn) [Compound S1, (2S,3aS,5R)-octahydro-1H-2,5-methanoinden-7-aminium chloride]	–	94.2	–
NC1(C(F)(F)F)C2CC3CC(C2)CC1C3 (stereo not drawn) [Compound S6]	–	86.3	IC50: 10.1 µM
Cc1nc[nH]c1/C=N/OC12CC3CC(CC(C3)C1)C2 [Compound 43, 5-Methyl-3H-imidazole-4-carbaldehyde O-adamantan-1-yl-oxime]	81	–	–
N=C(N)C12CC3CC(CC(C3)C1)C2 [Compound 44, Adamantane amidine hydrochloride]	70	–	–
CC(N)C12CC3CC(CC(C3)C1)C2 (stereo not drawn) [Rimantadine, reference compound]	–	–	inhibition at 100 µM [2]: 91.2 ± 0.9%
O=[N+]([O-])C12CC3CC(CC(C3)C1)C2 [Compound S9]	–	87.2	–
O=C1C2CC3CC(C2)CC1C3 [Compound S13]	–	69.6	IC50: 28.8 µM
OC1(C(F)(F)F)C2CC3CC(C2)CC1C3 (stereo not drawn) [Compound S8]	–	82.9	IC50: 13.8 µM
CC1(O)C2CC3CC(C2)CC1C3 (stereo not drawn) [Compound S4]	–	85.8	–
O=[N+]([O-])C1C2CC3CC(C2)CC1C3 (stereo not drawn) [Compound S3]	–	85.6	–
Cl.Cl.N=C(N)NC(=N)NC12CC3CC(CC(C3)C1)C2 [Compound 41]	70	–	–
NC12CC3CC(C1)CC(O)(C3)C2 [Compound 38]	87	–	–
Cl.NC12CCC3CC(CC(C3)C1)C2 [Compound S12]	–	92	–
N=C(N)NC12CC3CC(CC(C3)C1)C2 [Compound 39, 1-(adamantyl)guanidine]	97	–	–
OC1(C(F)(F)F)C2CC3CC(C2)CC1C3 (stereo not drawn) [Compound 53, 2-trifluoromethyl-2-adamantol]	82.9	–	–
Cl.NC1CCC2(CC1)C1CC3CC(C1)CC2C3 (stereo not drawn) [Compound S15, (1r, 3r,5r,7r)-spiro[adamantane-2,1′-cyclohexan]-4′-aminium chloride]	–	–	inhibition at 100 µM [2]: 89.1 ± 1.3%
O=C1C2CC3CC(C2)CC1C3 [Compound 50]	69.6	–	–
